Key:
786-0 = experiment: NCI DTP cell line screen (SRB), Renal Cancer; type: cell-based
Outline: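 Growth medium is RPMI 1640 plus 5% fetal bovine serum and 2 mM L-glutamine, with seeding density set by doubling time. Compounds are applied for 48 h across five dilutions, and protein mass is measured by sulforhodamine B staining.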

DU-145 = experiment: NCI DTP cell line screen (SRB), Prostate Cancer; type: cell-based
Method: (§1) Screening of compounds 70 and 71 against several cancer cell lines The human tumor cell lines of the cancer screening panel are grown in RPMI 1640 medium containing 5% fetal bovine serum and 2 mM L-glutamine. For a typical screening experiment, cells are inoculated into 96 well microtiter plates in 100 μL at plating densities ranging from 5,000 to 40,000 cells/well depending on the doubling time of individual cell lines. After cell inoculation, the microtiter plates are incubated at 37° C., 5% CO2, 95% air and 100% relative humidity for 24 h prior to addition of experimental drugs.
(§2) After 24 h, two plates of each cell line are fixed in situ with TCA, to represent a measurement of the cell population for each cell line at the time of drug addition (Tz). Experimental drugs are solubilized in dimethyl sulfoxide at 400-fold the desired final maximum test concentration and stored frozen prior to use. At the time of drug addition, an aliquot of frozen concentrate is thawed and diluted to twice the desired final maximum test concentration with complete medium containing 50 μg/ml gentamicin. Additional four, 10-fold or ½ log serial dilutions are made to provide a total of five drug concentrations plus control. Aliquots of 100 μl of these different drug dilutions are added to the appropriate microtiter wells already containing 100 μl of medium, resulting in the required final drug concentrations.
(§3) Following drug addition, the plates are incubated for an additional 48 h at 37° C., 5% CO2, 95% air, and 100% relative humidity. For adherent cells, the assay is terminated by the addition of cold TCA. Cells are fixed in situ by the gentle addition of 50 μl of cold 50% (w/v) TCA (final concentration, 10% TCA) and incubated for 60 minutes at 4° C. The supernatant is discarded, and the plates are washed five times with tap water and air dried. Sulforhodamine B (SRB) solution (100 μl) at 0.4% (w/v) in 1% acetic acid is added to each well, and plates are incubated for 10 minutes at room temperature. After staining, unbound dye is removed by washing five times with 1% acetic acid and the plates are air dried. Bound stain is subsequently solubilized with 10 mM trizma base, and the absorbance is read on an automated plate reader at a wavelength of 515 nm. For suspension cells, the methodology is the same except that the assay is terminated by fixing settled cells at the bottom of the wells by gently adding 50 μl of 80% TCA (final concentration, 16% TCA). Using the seven absorbance measurements [time zero, (Tz), control growth, (C), and test growth in the presence of drug at the five concentration levels (Ti)], the percentage growth is calculated at each of the drug concentrations levels. Percentage growth inhibition is calculated as: [(Ti−Tz)/(C−Tz)]×100 for concentrations for which Ti>/=Tz [(Ti−Tz)/Tz]×100 for concentrations for which Ti<Tz
(§4) Three dose response parameters are calculated for each experimental agent. […] The drug concentration resulting in total growth inhibition (TGI) is calculated from Ti=Tz. […] Values are calculated for each of these three parameters if the level of activity is reached; however, if the effect is not reached or is exceeded, the value for that parameter is expressed as greater or less than the maximum or minimum concentration tested.
(§5) The methods described were used to test compounds 70 and 71 on a panel of sixty cell lines under a screening service provided by the Developmental Therapeutics Program at the National Institutes of Health. Shown in FIG. 1C are 1, RPMI-8226 leukemia cells; 2; NCI-H322M non-small cell lung cancer cells; 3, HT29 colon cancer cells; 4, U251 CNS cancer cells; 5, SK-MEL-28 melanoma cancer cells; 6, SK-OV-3 ovarian cancer cells; 7, RXF 393 renal cancer cells; 8, PC-3 prostate cancer cells; 9, MDA-MB-231 breast cancer cells.

PC-3 = experiment: NCI DTP cell line screen (SRB), Prostate Cancer; type: cell-based
Method: as §1, §2, §3, §4, §5

UACC-62 = experiment: NCI DTP cell line screen (SRB), Melanoma; type: cell-based
HOP-92 = experiment: NCI DTP cell line screen (SRB), Non-Small Cell Lung Cancer; type: cell-based
SK-OV-3 = experiment: NCI DTP cell line screen (SRB), Ovarian Cancer; type: cell-based, human
Method: as §1, §2, §3, §4, §5

MCF7 = experiment: NCI DTP cell line screen (SRB), Breast Cancer; type: cell-based, human
Method: as §1, §2, §3, §4, §5

MDA-MB-435 = experiment: NCI DTP cell line screen (SRB), Breast Cancer; type: cell-based, human
Method: as §1, §2, §3, §4, §5

[1] = read-out: LC50 (the source's name)

N=C(N)Nc1ccc(-n2nc(C(F)(F)F)cc2-c2ccc3c(ccc4ccccc43)c2)cc1 [Compound 71, 4-[5-(2-Phenanthrenyl)-3-(trifluoromethyl)-1H-pyrazol-1-yl]-phenyl-guanidine] was tested, and the GI50 (786-0) was 1490 nM, the TGI (786-0) was 2.91E−06 and the “Mean Optical Densities” value (786-0; Log10 Concentration −4.0) was 0.458. The “Percent Growth” value (786-0; Log10 Concentration −4.0) was −30%, the “Mean Optical Densities” value (786-0; Log10 Concentration −5.0) was 0.046 and the “Percent Growth” value (786-0; Log10 Concentration −5.0) was −93%. For the same compound, the “Mean Optical Densities” value (786-0; Log10 Concentration −6.0) was 1.663, the “Percent Growth” value (786-0; Log10 Concentration −6.0) was 80% and the “Mean Optical Densities” value (786-0; Log10 Concentration −7.0) was 1.868. The “Percent Growth” value (786-0; Log10 Concentration −7.0) was 96%, the “Mean Optical Densities” value (786-0; Log10 Concentration −8.0) was 1.862 and the “Percent Growth” value (786-0; Log10 Concentration −8.0) was 96%. For the same compound, the GI50 (DU-145) was 1550 nM, the TGI (DU-145) was 2.89E−06 and the “Mean Optical Densities” value (DU-145; Log10 Concentration −4.0) was −0.019. The “Percent Growth” value (DU-145; Log10 Concentration −4.0) was −100%, the “Mean Optical Densities” value (DU-145; Log10 Concentration −5.0) was −0.074 and the “Percent Growth” value (DU-145; Log10 Concentration −5.0) was −100%. For the same compound, the “Mean Optical Densities” value (DU-145; Log10 Concentration −6.0) was 0.760, the “Percent Growth” value (DU-145; Log10 Concentration −6.0) was 85% and the “Mean Optical Densities” value (DU-145; Log10 Concentration −7.0) was 0.767. For the same compound, the “Percent Growth” value (DU-145; Log10 Concentration −7.0) was 87%, the “Mean Optical Densities” value (DU-145; Log10 Concentration −8.0) was 0.694 and the “Percent Growth” value (DU-145; Log10 Concentration −8.0) was 72%. The CC50 (DU-145; [1]) was 5370 nM, the GI50 (PC-3) was 1380 nM and the TGI (PC-3) was 2.67E−06. The “Mean Optical Densities” value (PC-3; Log10 Concentration −4.0) was 0.179, the “Percent Growth” value (PC-3; Log10 Concentration −4.0) was −26% and the “Mean Optical Densities” value (PC-3; Log10 Concentration −5.0) was −0.022. The “Percent Growth” value (PC-3; Log10 Concentration −5.0) was −100%, the “Mean Optical Densities” value (PC-3; Log10 Concentration −6.0) was 0.857 and the “Percent Growth” value (PC-3; Log10 Concentration −6.0) was 75%. The “Mean Optical Densities” value (PC-3; Log10 Concentration −7.0) was 0.846, the “Percent Growth” value (PC-3; Log10 Concentration −7.0) was 73% and the “Mean Optical Densities” value (PC-3; Log10 Concentration −8.0) was 0.862. The “Percent Growth” value (PC-3; Log10 Concentration −8.0) was 75%, the GI50 (UACC-62) was 1440 nM and the TGI (UACC-62) was 2.74E−06. For the same compound, the “Mean Optical Densities” value (UACC-62; Log10 Concentration −4.0) was 0.272, the “Percent Growth” value (UACC-62; Log10 Concentration −4.0) was −60% and the “Mean Optical Densities” value (UACC-62; Log10 Concentration −5.0) was −0.041. For the same compound, the “Percent Growth” value (UACC-62; Log10 Concentration −5.0) was −100%, the “Mean Optical Densities” value (UACC-62; Log10 Concentration −6.0) was 1.301 and the “Percent Growth” value (UACC-62; Log10 Concentration −6.0) was 78%. For the same compound, the “Mean Optical Densities” value (UACC-62; Log10 Concentration −7.0) was 1.338, the “Percent Growth” value (UACC-62; Log10 Concentration −7.0) was 83% and the “Mean Optical Densities” value (UACC-62; Log10 Concentration −8.0) was 1.323. The “Percent Growth” value (UACC-62; Log10 Concentration −8.0) was 81%, the CC50 (UACC-62; [1]) was 5240 nM and the GI50 (HOP-92) was 1010 nM. For the same compound, the TGI (HOP-92) was 2.26E−06, the “Mean Optical Densities” value (HOP-92; Log10 Concentration −4.0) was 0.767 and the “Percent Growth” value (HOP-92; Log10 Concentration −4.0) was −28%. For the same compound, the “Mean Optical Densities” value (HOP-92; Log10 Concentration −5.0) was 0.089, the “Percent Growth” value (HOP-92; Log10 Concentration −5.0) was −92% and the “Mean Optical Densities” value (HOP-92; Log10 Concentration −6.0) was 1.361. The “Percent Growth” value (HOP-92; Log10 Concentration −6.0) was 50%, the “Mean Optical Densities” value (HOP-92; Log10 Concentration −7.0) was 1.541 and the “Percent Growth” value (HOP-92; Log10 Concentration −7.0) was 82%. For the same compound, the “Mean Optical Densities” value (HOP-92; Log10 Concentration −8.0) was 1.567, the “Percent Growth” value (HOP-92; Log10 Concentration −8.0) was 86% and the GI50 (SK-OV-3) was 1430 nM. For the same compound, the TGI (SK-OV-3) was 2.94E−06, the “Mean Optical Densities” value (SK-OV-3; Log10 Concentration −4.0) was 0.278 and the “Percent Growth” value (SK-OV-3; Log10 Concentration −4.0) was −30%. For the same compound, the “Mean Optical Densities” value (SK-OV-3; Log10 Concentration −5.0) was 0.062, the “Percent Growth” value (SK-OV-3; Log10 Concentration −5.0) was −85% and the “Mean Optical Densities” value (SK-OV-3; Log10 Concentration −6.0) was 1.093. The “Percent Growth” value (SK-OV-3; Log10 Concentration −6.0) was 75%, the “Mean Optical Densities” value (SK-OV-3; Log10 Concentration −7.0) was 1.245 and the “Percent Growth” value (SK-OV-3; Log10 Concentration −7.0) was 91%. For the same compound, the “Mean Optical Densities” value (SK-OV-3; Log10 Concentration −8.0) was 1.261, the “Percent Growth” value (SK-OV-3; Log10 Concentration −8.0) was 93% and the GI50 (MCF7) was 1820 nM. For the same compound, the “Mean Optical Densities” value (MCF7; Log10 Concentration −4.0) was 0.229, the “Percent Growth” value (MCF7; Log10 Concentration −4.0) was −49% and the “Mean Optical Densities” value (MCF7; Log10 Concentration −5.0) was 0.073. For the same compound, the “Percent Growth” value (MCF7; Log10 Concentration −5.0) was −84%, the “Mean Optical Densities” value (MCF7; Log10 Concentration −6.0) was 1.507 and the “Percent Growth” value (MCF7; Log10 Concentration −6.0) was 97%. For the same compound, the “Mean Optical Densities” value (MCF7; Log10 Concentration −7.0) was 1.340, the “Percent Growth” value (MCF7; Log10 Concentration −7.0) was 82% and the “Mean Optical Densities” value (MCF7; Log10 Concentration −8.0) was 1.467. For the same compound, the “Percent Growth” value (MCF7; Log10 Concentration −8.0) was 93%, the TGI (MCF7; MCP7, in M (unit assumed)) was 3.44E−06 and the GI50 (MDA-MB-435) was 1700 nM. The “Mean Optical Densities” value (MDA-MB-435; Log10 Concentration −4.0) was 0.295, the “Percent Growth” value (MDA-MB-435; Log10 Concentration −4.0) was −27% and the “Mean Optical Densities” value (MDA-MB-435; Log10 Concentration −5.0) was −0.073. For the same compound, the “Percent Growth” value (MDA-MB-435; Log10 Concentration −5.0) was −100%, the “Mean Optical Densities” value (MDA-MB-435; Log10 Concentration −6.0) was 1.444 and the “Percent Growth” value (MDA-MB-435; Log10 Concentration −6.0) was 95%. The “Mean Optical Densities” value (MDA-MB-435; Log10 Concentration −7.0) was 1.382, the “Percent Growth” value (MDA-MB-435; Log10 Concentration −7.0) was 89% and the “Mean Optical Densities” value (MDA-MB-435; Log10 Concentration −8.0) was 1.376. For the same compound, the “Percent Growth” value (MDA-MB-435; Log10 Concentration −8.0) was 89% and the TGI (MDA-MB-435; in M (unit assumed)) was 3.07E−06.
